# Reference: patent publication US20070149554A1, “Cancer chemotherapy” (Yung Shin Pharmaceutical Ind. Co., Ltd., priority 2005, published 2007)
# How the values were obtained:
# WEHI-3 cells [1] = assay: NBT reduction (differentiation) in WEHI-3 cells; type: cell-based, murine; conditions: 24 h; for percentages of NBT positive cells: FIG. 3B
# WEHI-3 leukemia cells = assay: Survival, organ and body weight, spleen histopathology of BALB/c mice bearing WEHI-3 leukemia cells; type: in vivo; conditions: for mean survival time of WEHI-3/BALB/c mice: 30 mg/kg/mouse i.p., untreated 30 days, text of b65; for Survival days Range / Survival days Mean ± S.D.: 30 mg/kg/mouse, QD*7 (once two days by seven times), 10 mice; for Survival days Range: untreated 20-30; for Survival days Mean ± S.D.: untreated 26.0 ± 3.9; for infiltration of immature myeloblastic cells into splenic red pulp: H-E stain of spleen section, FIG. 2; for body weight loss in leukemia mice: within one month of experiment, data not shown
# Description: Murine myelomonocytic leukemia cell line WEHI-3 was obtained from the Food Industry Research and Development Institute (Hsinchu, Taiwan). […] This cell line can induce leukemia in syngenic BALB/c mice for evaluating anti-leukemia effects of drugs.
# Specifically, BLAB/c mice were divided into 4 groups. Group I was injected i.p. with WEHI-3 only. […] Control mice and all groups of mice were treated for 2 weeks before the animals were weighed and the blood was draw and sacrificed for further experiments.
# The spleen and liver tissues were isolated from individual animals, photographed, weighed, and histopathologically examined.
# WEHI-3 cells [2] = assay: TUNEL/DAPI staining (apoptosis) in WEHI-3 cells; type: cell-based, murine; conditions: for TUNEL positive cells: 24 h, FIG. 3B; for nuclear shrinkage, chromatin condensation and DNA fragmentation (TUNEL/DAPI): 24 h culture, FIG. 3A
# [3] = tested on: human hepatocellular carcinoma HA22T cells; conditions: cited from earlier work
# A498 renal cancer cells = assay: A498 renal cancer xenograft tumor growth in athymic nude mice; type: in vivo; conditions: single agent; Compound 1 10 mg/kg/day oral in 0.5% CMC; paclitaxel or doxorubicin 20 mg/kg/week i.p.; nude mice with A498 tumors
# Description: Athymic nude mice (BALB/c nu/nu female, 6-8 week old) were housed at 22° C. on a 12 h light/dark cycle. The mice were subcutaneously injected with A498 renal cancer cells (10^7 cell/mouse). After inoculation for 15 days, tumors were grown to a size of 100 to 150 mm^3. The mice were then randomly divided into six grounds (5 mice in each group). […] (paclitaxel and doxorubicin are commercial products). […] The tumors were carefully removed and weighed.
# WEHI-3 cells [4] = assay: Cell cycle analysis of WEHI-3 cells in vitro; type: cell-based, murine; conditions: compound 1 5 μM, ATRA 1 μM, 24 h; data not shown
# Hep3B cells = conditions: cited from earlier work
# WEHI-3 cells [5] = assay: DNA fragmentation by agarose gel electrophoresis in WEHI-3 cells; conditions: compound 1 at 5 μM, 12 and 24 h; FIG. 4A
# Description: (§1) The results were expressed as mean±S.D. and the difference between the groups was tested by one way ANOVA.
# platelet = conditions: cited from earlier work
# caspase-3 = assay: Caspase-3 activity assay in WEHI-3 cells; conditions: 12, 18 and 24 h treatment; 50 μM of compound 1; FIG. 4B
# Description: as §1
Structure (SMILES),NBT-reduction compared with control cells (WEHI-3 cells [1]),percentages of NBT positive cells (WEHI-3 cells [1]) [%],mean survival time of WEHI-3/BALB/c mice (WEHI-3 leukemia cells) [days],Survival days Range (WEHI-3 leukemia cells) [days],Survival days Mean ± S.D. (WEHI-3 leukemia cells) [days],infiltration of immature myeloblastic cells into splenic red pulp (WEHI-3 leukemia cells),body weight loss in leukemia mice (WEHI-3 leukemia cells),TUNEL positive cells (WEHI-3 cells [2]) [%],"nuclear shrinkage, chromatin condensation and DNA fragmentation (TUNEL/DAPI) (WEHI-3 cells [2])",cell cycle arrest [3],tumor size compared with control group (A498 renal cancer cells),sub-G1 population (WEHI-3 cells [4]),hypoxia induction of erythropoietin and vascular endothelial growth factor (Hep3B cells),DNA fragmentation (agarose gel) (WEHI-3 cells [5]),antiplatelet activity (platelet),caspase-3 activity (caspase-3)
"CC1=C(/C=C/C(C)=C/C=C/C(C)=C/C(=O)O)C(C)(C)CCC1 [ATRA, all trans retinoic acid, reference compound]",significant increases,33.42,42,26 to 42,33.9 ± 5.0,reduced,improved the body weight loss,5.45,not observed,–,–,–,–,–,–,–
"OCc1ccc(-c2nn(Cc3ccccc3)c3ccccc23)o1 [Compound 1, 1-benzyl-3-(5′-hydroxymethyl-2′-furyl)indazole]",–,3.56,40,22 to 40,32.3 ± 4.9,reduced,improved the body weight loss,40.33,"exhibited nuclear shrinkage, chromatin condensation and DNA fragmentation",arresting cell cycles at the Go/G1 stage,smaller tumors than those in the control group,increased sub-GI population,inhibits hypoxia induction of erythropoietin and vascular endothelial growth factor,fragmented into a ladder of 180-200 base pairs,novel antiplatelet agent,rapid induction of caspase-3 activity
"COc1cccc2c1C(=O)c1c(O)c3c(c(O)c1C2=O)C[C@@](O)(C(=O)CO)C[C@@H]3O[C@H]1C[C@H](N)[C@H](O)[C@H](C)O1 [doxorubicin, Doxorubicin]",–,–,–,–,–,–,–,–,–,–,smaller tumors than those in the control group,–,–,–,–,–
"CC(=O)O[C@H]1C(=O)[C@@]2(C)[C@H]([C@H](OC(=O)c3ccccc3)[C@]3(O)C[C@H](OC(=O)[C@H](O)[C@@H](NC(=O)c4ccccc4)c4ccccc4)C(C)=C1C3(C)C)[C@]1(OC(C)=O)CO[C@@H]1C[C@@H]2O [paclitaxel, Paclitaxel]",–,–,–,–,–,–,–,–,–,–,smaller tumors than those in the control group,–,–,–,–,–
